Measured values from patent US11925645B2, “Enhanced caffeinated beverage composition” (Ortho-Nutra, LLC, priority 2013, dated 2024).
Read-outs that look alike come from different tables or passages of the source. Blank lines part the entries; values can stand above or below the compound they belong to.

What was measured:
[1] = Theacrine-caffeine interaction study: heart rate, blood pressure, rate pressure product, tolerability; details: at the doses tested, administered alone or in combination
Source text: (§1) Study Design and Procedures. […] Theacrine, administered as iTeaCrine.®, was provided by Compound Solutions (Carlsbad, Calif). […] Treatment sequence was randomized using a 4×4 Latin square. There was an approximate 1-week washout period between treatments for all subjects.
(§2) Test Visit Procedures. […] A catheter was inserted into the forearm vein for blood sampling. Duplicate measurements of resting heart rate and blood pressure were taken pre-dose and prior to each timed blood sample. In addition, respiratory rate was counted in one minute and body temperature was measured using an ear scanning thermometer (dual readings taken at each time).
Differences between treatment group values were determined for systolic blood pressure (SBP), diastolic blood pressure (DBP), rate pressure product, and heart rate. Parametric data were analyzed by paired Student's t tests of mean differences in values between treatment groups. Statistical significance was defined a priori as a 2-sided or <0.05.

[2] = Theacrine-caffeine interaction study: single oral dose plasma pharmacokinetics (LC-MS/MS, noncompartmental); assay type: in vivo, human
Source text: Theacrine pharmacokinetics in humans has not been systematically characterized. Therefore, one purpose of this study, among others, was to determine theacrine pharmacokinetics and dose-linearity following oral administration in humans.
Eight healthy nonsmokers, including 4 men and 4 women, were recruited for the experiment.
as §1, §2
All subjects were instructed to consume their usual diet throughout the study period, with the exception of the actual days of testing. During the two days prior to each test day, subjects recorded all food and drink consumed and attempted to mimic this intake for the two-day period prior to subsequent visits. Diet records were analyzed using nutrient analysis software (Food Processor SQL, version 9.9; ESHA Research, Salem, Oreg.). For the actual test days, standardized meals (meal replacement food bars [Clif “Builder's 20 g Protein Bar”] and ready-to-drink shakes [Orgain Organic Nutrition™]) were provided to the subjects after sample collection at hour 2 and hour 6 (one shake and one-half bar at each time). Subjects were also provided with adequate meal replacement bars and shakes to consume following the 8 hour sample collection. (during their time outside the lab). Each bar contained 280 calories, 10 grams of fat, 29 grams of carbohydrate, and 20 grams of protein. Each shake contained 250 calories, 7 grams of fat, 32 grams of carbohydrate, and 16 grams of protein. No food other than what was provided to the subjects was allowed during each study day, including both time spent in the lab and outside the lab. […] The subjects returned the following morning for the 24 hour blood collection, again in a 10 hour fasted state. The same volume of meal replacement bars or shakes was consumed by each subject during each visit (both in lab and outside lab).
Pharmacokinetic Study. Plasma concentration-time data were evaluated using noncompartmental methods in Phoenix WinNonlin (version 7.0; Pharsight Corporation, Mountain View, Calif) with adjustment for lag time after oral administration. The maximum concentration (Cmax), lag time (talag), and time of maximum concentration (tmax) were determined from the plasma concentration versus time data. The area under the plasma concentration-time curve from time 0 to infinity (was calculated using the trapezoidal rule extrapolated to time infinity). […] The oral clearance (CL/F) was calculated by dividing the oral dose by AUC0-∞. The apparent volume of distribution during the terminal elimination phase (Vz/F) was calculated by dividing CL/F by k. […]

[3] = Single dose theacrine, caffeine or combination: subjective feelings on 10 cm visual analog scale; assay type: in vivo, human
Procedure: Subjects rated their subjective feelings using a 10 cm visual analog scale at 30 minutes, 1, 2, 3, 4, and 5 hours post ingestion and performed the trail making test (TMT) of cognitive performance at baseline and at hours 2 and 4 post ingestion.

[4] = Fourteen day study of repetitive dosing of theacrine and caffeine: psychometric indices; assay type: in vivo, human
[5] = both sexes, human, in vivo, 150 mg
[6] = from baseline to 2 hours post-ingestion

SMILES: Cn1c(=O)c2c(ncn2C)n(C)c1=O [Caffeine, caffeine, reference compound]
- effect on baseline hemodynamic parameters, e.g. heart rate and blood pressure [1]: no effect
- MRT [2, 5]: 8.4 ± 4.3 h
- half-life [2, 5]: 6.2 ± 3.8 h
- Vd/F ([2]; both sexes, human, in vivo, 150 mg, Vd/F): 33.5 ± 13.7 L
- dose-adjusted Cmax ([2]; both sexes, human, in vivo, po, 150 mg): 33.4 ± 9.5 ng/mL/mg
- caffeine pharmacokinetics following caffeine alone or caffeine plus theacrine co-ingestion ([2]; caffeine 150 mg vs theacrine 125 mg + caffeine 150 mg): similar
- AUC ([2]; human, in vivo, 150 mg): 262.0 ± 74.1 ng·h/mL/mg
- CL/F ([2]; human, in vivo, 150 mg): 4.1 ± 1.1 L/h
- self-reported motivation to exercise ([3]; caffeine 150 mg, 125 mg theacrine and 150 mg caffeine): significantly increased
- motivation to exercise [3, 6]: significantly increased
- sense of energy [3, 6]: significantly increased
- subjective focus [3, 6]: significant increase
- anxiety [4]: increased anxiety scores
- psychometric indices of energy, focus, concentration, motivation and mood [4]: decreasing levels of energy, focus and concentration by Day 5

- Tmax ([2]; both sexes, human, plasma, oral, 150 mg): 5 h
- dose-adjusted Cmax ([2]; both sexes, human, plasma, oral, 150 mg, paraxanthine in plasma, Condition 3: Caffeine 150 mg, dose-adjusted, mean ± SD): 7.3 ± 1.5 ng/mL/mg
- MRT ([2]; both sexes, human, plasma, oral, 150 mg, read-out: MRT): 19.1 ± 18.6 h
- half-life ([2]; both sexes, human, plasma, oral, 150 mg, read-out: t1/2 (converted)): 12.5 ± 12.7 h
- dose-adjusted Cmax ([2]; both sexes, human, plasma, oral, paraxanthine in plasma, Condition 4: Theacrine 125 mg + Caffeine 150 mg, dose-adjusted, mean ± SD): 8.4 ± 3.5 ng/mL/mg
- AUC ([2]; paraxanthine in plasma, Condition 3: Caffeine 150 mg, dose-adjusted, mean ± SD): 174 ± 152 ng·h/mL/mg
- AUC ([2]; paraxanthine in plasma, Condition 4: Theacrine 125 mg + Caffeine 150 mg, dose-adjusted, mean ± SD): 209 ± 202 ng·h/mL/mg
SMILES: Cn1c(=O)[nH]c2ncn(C)c2c1=O [Paraxanthine, paraxanthine]
